Source: patent US7812034B2, “Method of using protease inhibitors for the treatment of liposarcomas” (City of Hope, priority 2003, dated 2010)
Read-outs that look alike come from different tables or passages of the source.

Tests used:
SW872 liposarcoma cells = experiment: Clonogenic assay, SW872 liposarcoma cells; type: cell-based, human; details: for concentration that inhibits SW872 liposarcoma clonogenicity (colony growth): 4 hours treatment, 2000 cells plated, colonies scored at 7-10 days, FIG. 1
Description: The experimental conditions were intended to bracket these clinically relevant concentrations.
Two thousand treated cells were plated into 60 mm tissue culture plates in triplicate, and colonies (≧40 cells/colony) were scored at 7-10 days with the Eagle Eye II gel documentation system (Stratagene, La Jolla, Calif.). FIG. 1 summarizes the mean and standard deviation of the triplicate colony counts for each experimental condition. […] Ritonavir inhibits colony growth if administered in a concentration of at least 10 μM.
(§1) One thousand treated cells were plated in triplicate in this instance, and colonies were similarly scored.

[1] = system: human 293 embryonic kidney cells; experiment: Clonogenic assay, 293 embryonic kidney cells; type: cell-based; details: increasing concentrations, 1000 cells plated, FIG. 2
Description: as §1

[2] = system: human HT1080 fibrosarcoma cells; experiment: Clonogenic assay, HT1080 fibrosarcoma cells; type: cell-based; details: increasing concentrations, 1000 cells plated, FIG. 2
Description: as §1

S2 liposarcoma cell line = experiment: Clonogenic assay, S2 high-grade liposarcoma cells; type: cell-based, human; details: 2.5, 10, 20 μM, 4 hours, FIG. 3
Description: A second high-grade liposarcoma cell line, S2 (a kind gift from Dr. Wei Wen, City of Hope Medical Center), was tested for protease inhibitor (PI) therapy for liposarcoma. The purpose of the experiment was to determine whether nelfinavir-mediated inhibition of liposarcoma clonogenicity could be reproduced in S2 cells. As with the SW872 experiment, S2 cells […], indinavir, ritonavir, and saquinavir. […] Colonies (≧40 cells/colony) were scored at 7-10 days with the Eagle Eye II gel documentation system (Stratagene, La Jolla, Calif.). FIG. 3 summarizes the mean and standard deviation of the triplicate colony counts for each experimental condition.

SREBP-1 [3] = experiment: Western blot of SREBP-1 protein in S2 cells; type: cell-based, human; details: 10 μM, FIG. 4
Excerpt: In order to influence transcription, the NH2-terminal domain of SREBP-1 must be proteolytically released from the membrane to enter the nucleus (68 kDa).

SREBP-1 [4] = experiment: SREBP-1 protein levels in SW872 cells; type: cell-based, human
Description: In order to influence transcription, the NH2-terminal domain of SREBP-1 must be proteolytically released from the membrane to enter the nucleus (68 kDa). […] Alterations in both SREBP-1 and PPARγ levels have been proposed as the mechanisms underlying of HIV protease-induced lipodystrophy (15-18, 21). To determine whether a similar mechanism is responsible for the observation of nelfinavir-mediated inhibition of liposarcoma clonogenicity, whole cell extracts are prepared from control and nelfinavir-treated SW872 cells for SDS-PAGE electrophoresis. After transfer to polyvinylidene fluoride membranes, the extracts are probed with rabbit polyclonal antibodies to SREBP-1 and PPARγ (Santa Cruz Biotechnology, Santa Cruz, Calif.). Protein detection is performed by ECL using commercially available reagents as per the manufacturer's instructions (Applied Biosystems, Foster City, Calif.). To control for protein-loading, the membranes are stripped and reprobed with antibody to β-actin (Santa Cruz Biotechnology).

[5] = humans, cited from earlier work; for Cmax: recommended dose and regimen, read-out: maximum plasma concentration (Cmax)
[6] = cited from earlier work
[7] = cited from earlier work; remark: listed apart in the source
[8] = system: differentiated adipocytes; details: incubation for 48 hours; cited from earlier work
pre-adipocytes = details: incubation for 48 hours; cited from earlier work
[9] = system: intermediate to high-grade liposarcoma; details: patients with liposarcoma; cited from earlier work
[10] = system: advanced soft tissue sarcomas; details: patients; cited from earlier work

Cc1c(O)cccc1C(=O)N[C@@H](CSc1ccccc1)[C@H](O)CN1C[C@H]2CCCC[C@H]2C[C@H]1C(=O)NC(C)(C)C [nelfinavir]
concentration that inhibits SW872 liposarcoma clonogenicity (colony growth) (SW872 liposarcoma cells): ≥ 2.5 µM | colonies in the SW872 cell line (SW872 liposarcoma cells; nelfinavir 20 μM, 1000 cells plated, FIG. 2): marked reduction in colonies | embryonic kidney (293) clonogenicity [1]: minimally affecting | fibrosarcoma (HT1080) clonogenicity [2]: minimally affecting | clonogenicity in the S2 liposarcoma cell line (S2 liposarcoma cell line): inhibits clonogenicity | SREBP-1 protein (nuclear active and precursor forms) (SREBP-1 [3]): upregulated in a time-dependent fashion | expression of SREBP-1 (SREBP-1 [4]): upregulates expression of SREBP-1 | oral bioavailability ([5]; administered with food): 70-80% | Cmax [5]: 6.97 µM | oral bioavailability ([6]; fed rats): 43% | plasma Cmax ([6]; rat, daily gavage 50 mg/kg in 5% dextrose or propylene glycol-water): 1340 to 1650 ng/mL | Cmax ([6]; rat, daily gavage 50 mg/kg in 5% dextrose or propylene glycol-water, read-out: plasma Cmax): 2.33 to 2.87 µM | time plasma levels were maintained after dosing ([6]; rat, oral 50 mg/kg): up to 7 hours | water solubility [7]: water-soluble | apoptosis in differentiated adipocytes [8]: induced apoptosis | apoptosis in pre-adipocytes (pre-adipocytes): not in pre-adipocytes

Cc1c(C)c2c(c(C)c1O)CCC(C)(COc1ccc(CC3SC(=O)NC3=O)cc1)O2 (centres unmarked) [troglitazone]
toxicity of therapy [9]: negligible

CC(C)c1nc(CN(C)C(=O)N[C@H](C(=O)N[C@@H](Cc2ccccc2)C[C@H](O)[C@H](Cc2ccccc2)NC(=O)OCc2cncs2)C(C)C)cs1 [ritonavir]
concentration that inhibits SW872 liposarcoma clonogenicity (colony growth) (SW872 liposarcoma cells): at least 10 μM | Cmax [5]: 15.5 µM | apoptosis in differentiated adipocytes [8]: induced apoptosis | apoptosis in pre-adipocytes (pre-adipocytes): not in pre-adipocytes

CC(C)(C)NC(=O)[C@@H]1CN(Cc2cccnc2)CCN1C[C@@H](O)C[C@@H](Cc1ccccc1)C(=O)N[C@H]1c2ccccc2C[C@H]1O [indinavir]
Cmax [5]: 12.5 µM

COc1cccc2c1C(=O)c1c(O)c3c(c(O)c1C2=O)C[C@@](O)(C(=O)CO)C[C@@H]3O[C@H]1C[C@H](N)[C@H](O)[C@H](C)O1 [doxorubicin]
response rate [10]: about 25%

CC(C)(C)NC(=O)[C@@H]1C[C@@H]2CCCC[C@@H]2CN1C[C@@H](O)[C@H](Cc1ccccc1)NC(=O)[C@H](CC(N)=O)NC(=O)c1ccc2ccccc2n1 [saquinavir]
Cmax [5]: 3.67 µM | apoptosis in differentiated adipocytes [8]: induced apoptosis | apoptosis in pre-adipocytes (pre-adipocytes): not in pre-adipocytes
